Measurements reported in ChEMBL document CHEMBL1938252, “Structure-based optimization of morpholino-triazines as PI3K and mTOR inhibitors” (Bioorg Med Chem Lett, 2012).

Experiments:
[1] = molecular target: T1, Serine/threonine-protein kinase mTOR (Homo sapiens, UniProt P42345); test: Inhibition of mTOR
[2] = molecular target: Phosphatidylinositol 4,5-bisphosphate 3-kinase catalytic subunit alpha isoform (Homo sapiens, UniProt P42336); test: Inhibition of PI3Kalpha
[3] = molecular target: T1, Serine/threonine-protein kinase mTOR; test: Inhibition of mTOR-mediated p70S6K phosphorylation at Thr389 in human PC3 cells; format: cell-based, PC-3
[4] = Selectivity ratio of IC50 for PI3Kaplha to IC50 for mTOR

Chain of Phosphatidylinositol 4,5-bisphosphate 3-kinase catalytic subunit alpha isoform (P42336 whole entry, canonical isoform): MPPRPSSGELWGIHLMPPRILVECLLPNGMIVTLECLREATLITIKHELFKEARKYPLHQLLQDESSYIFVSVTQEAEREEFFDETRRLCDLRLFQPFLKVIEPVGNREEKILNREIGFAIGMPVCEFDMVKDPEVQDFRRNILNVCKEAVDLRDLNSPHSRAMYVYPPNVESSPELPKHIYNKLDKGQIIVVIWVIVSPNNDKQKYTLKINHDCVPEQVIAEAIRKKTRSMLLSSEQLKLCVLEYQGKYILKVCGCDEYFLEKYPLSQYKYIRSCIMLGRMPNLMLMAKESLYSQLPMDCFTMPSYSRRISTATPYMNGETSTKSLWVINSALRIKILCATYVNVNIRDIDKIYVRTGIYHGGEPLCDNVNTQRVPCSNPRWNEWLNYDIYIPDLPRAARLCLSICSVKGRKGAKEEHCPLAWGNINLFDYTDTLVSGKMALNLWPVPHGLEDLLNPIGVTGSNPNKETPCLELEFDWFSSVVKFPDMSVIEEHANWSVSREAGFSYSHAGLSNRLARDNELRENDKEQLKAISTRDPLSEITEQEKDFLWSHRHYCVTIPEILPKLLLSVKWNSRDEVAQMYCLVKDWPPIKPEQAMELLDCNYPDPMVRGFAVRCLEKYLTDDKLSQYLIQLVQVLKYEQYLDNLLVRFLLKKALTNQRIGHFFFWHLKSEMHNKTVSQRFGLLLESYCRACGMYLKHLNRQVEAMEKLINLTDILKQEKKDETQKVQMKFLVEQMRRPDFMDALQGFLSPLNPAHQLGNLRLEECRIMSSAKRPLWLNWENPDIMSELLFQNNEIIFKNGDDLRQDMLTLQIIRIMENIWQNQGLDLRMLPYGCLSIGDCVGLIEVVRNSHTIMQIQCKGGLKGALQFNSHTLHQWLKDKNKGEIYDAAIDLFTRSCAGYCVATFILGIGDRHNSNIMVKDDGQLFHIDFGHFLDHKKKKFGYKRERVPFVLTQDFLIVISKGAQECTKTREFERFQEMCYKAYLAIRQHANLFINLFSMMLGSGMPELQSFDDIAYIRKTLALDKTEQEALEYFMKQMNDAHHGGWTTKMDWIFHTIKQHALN

Row | IC50 [1] [nM] | IC50 [2] [nM] | IC50 [3] [nM] | Ratio IC50 [4] | SMILES
1 | 26 | 89 | 96 | 3.4 | CCc1nccn1-c1nc(-c2cccc3[nH]ccc23)nc(N2CCOCC2)n1
2 | 570 | 2800 | – | 4.9 | Clc1cccc(Nc2nc(N3CCOCC3)nc(-n3cccn3)n2)c1
3 | 350 | – | – | – | FC(F)c1nc2ccccc2n1-c1nc(N2CCOCC2)nc(N2CCOCC2)n1 [ZSTK-474]
4 | 18 | 1100 | 84 | 60 | Cc1ccc(-c2nc(N3CCOCC3)nc(-n3ccnc3C)n2)c2cc[nH]c12
5 | 95 | 53 | – | 0.6 | Cc1nccn1-c1nc(-c2cccc(O)c2)nc(N2CCOCC2)n1
6 | 71 | 4050 | 490 | 57 | CCc1cc(C(F)(F)F)nn1-c1nc(-c2cccc3[nH]ccc23)nc(N2CCOCC2)n1
7 | 420 | 25 | – | 0.06 | Cc1nccn1-c1nc(-c2cnc(N)nc2)nc(N2CCOCC2)n1
